Our source for the IC50 and Kd values is PMC11898738 (mBio, 2025).

The target of one assay is T1, BbPMI (Borreliella burgdorferi, UniProt O51368).
T1 construct: gene manA
As to the kind of experiment: coupled PGI/G6PDH assay, NADPH at […] nm. Type of assay: biochemical.

A further assay concerns the target type IV collagen (UniProt P02462 173-1669; P08572 184-1712). In words: MST; BbPMI labeled with RED-NHS dye at constant 5 nM; serial dilutions of collagen IV or controls; PBS + 0.05% Tween-20; 15 minutes at RT; standard capillaries, 10% excitation, 40% MST power; T-Jump analysis. The settings on record: both partners purified.

Turning to `Cc1ccc(C)c(-n2sc3cc(F)ccc3c2=O)c1` [MLS0315771, 2-(2,5-dimethylphenyl)-6-fluorobenzo[d]isothiazol-3(2H)-one], the IC50 (commonly the midpoint of a concentration-inhibition curve) on BbPMI lay in the range of 600 to 900 nM. The same measure, in the same setting: in the case of `O=c1c2ccc(F)cc2sn1-c1ccccc1` [NCGC00871019-01] it was about 500 nM; in that of `Cc1ccc(C)c(-n2sc3ccc(F)cc3c2=O)c1` [NCGC00871020-01], about 500 nM; in that of `COc1ccc(-n2sc3ccc(F)cc3c2=O)cc1` [NCGC00871021-01], about 500 nM.

B1: recombinant BbPMI labeled with RED-NHS dye (BbPMI-NT647) (enzyme)
chain: MNNEDNIFLMKNNIKEYDWGGINFIPNLLGDKIDGKPKAEMWLGAHKTFSSKILYKNEYVLLSDFLEDHKELLGCNDEFPFLLKVLSANKPLSIQIHPSKDIALKGYESENNKGIDINDPKRTYKDKNPKIELIYALSDFYALKGFLPLDEIKKIYEILELNFDFQSHKDFVKTIFDLQMYELEKIIEKILKNLDLIDNFRGYWFNEIYNIYGIDVGLLVFLGMNILKLKPGEVVYTNSQEVHAYLKGDCIELMTNSDNVIRAGLTTKYIDKDEMLRVGQFEEGKLSFLNPDFQDNFSVFRLPNTNLKLIQKKINENICINRNSAMVLLVLNGCVSINKSLNLKKGESIFIGKKAENLFIDGDGEAFIAGFN
modifications: labeled using RED-NHS dye (NT647)
For the molecule B1, the Kd (commonly the constant that tells how readily two partners part at equilibrium) with type IV collagen is 128 ± 45.1 nM.
